Measured values taken from patent publication US20070112013A1, “Method of modulating ion channel functional activity” (Australian National University, priority 1998, published 2007).

How the values were obtained:
Vpu ion channel [1] = molecular target: T1, Vpu ion channel (Human immunodeficiency virus type 1 group M subtype B, UniProt P05919); experiment: Vpu ion channel activity in planar lipid bilayers; format: biochemical, HIV-1; conditions: concentrations of 50-250μM
T1 construct: The vpu ORF was cloned in-frame at the 3′ end of the GST gene in p2GEX to generate p2GEXVpu; GST (N, cleaved yes); made in house; host or cells: E. coli XL1-blue containing p2GEXVpu
T1 sequence (P05919 whole entry): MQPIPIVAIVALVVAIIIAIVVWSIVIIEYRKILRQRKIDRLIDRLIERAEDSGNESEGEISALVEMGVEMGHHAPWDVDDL
Excerpt: FIG. 6 is a graphical representation of the inhibition of Vpu ion channel activity by 5-(N,N-hexamethylene)-arniloride (HMA) in planar lipid bilayers. The three traces represent typical Vpu channel activity observed in the presence of the indicated concentrations of HMA. The solid line indicates the zero current level. Mean currents (±variance), calculated for continuous channel recordings of at least 30 seconds duration, are plotted in the graph for each of the three drug concentrations.
Purified Vpu was tested for its ability to induce channel activity in planar lipid bilayers using standard techniques as described elsewhere (Miller, 1986; and Piller et al, 1996). The solutions in the CIS and TRANS chambers were separated by a Delrin™ plastic wall containing a small circular hole of approximately 100 μm diameter across which a lipid bilayer was painted so as to form a high resistance electrical seal. Bilayers were painted from a mixture (8:2) of palrnitoyl-oleoly-phosphatidyl-ethanolamine and palmitoyl-oleoly-phosphatidyl-choline (Avanti Polar Lipids, Alabaster, Alabama) in n-decane. The solutions in the two chambers contained MES buffer (10 mM, pH 6.0) to which various NaCl or KCl concentrations were added. Currents were recorded with an Axopatch™ 200 amplifier. The electrical potential between the two chambers could be manipulated between ±200 mV (TRANS relative to grounded CIS). Aliquots containing Vpu were added to the CIS chamber either as a detergent solution or after incorporation of the protein into phospholipid vesicles. The chamber was stirred until currents were observed.

HIV-1 [2] = experiment: PCR based assay of newly synthesised HIV DNA in human monocytes and macrophages; format: cell-based; conditions: 50 μM
Description: Human monocytes were isolated from peripheral blood and cultured either for 24 hr (one day old monocytes) or for 7 days to allow differentiation into monocyte derived macrophages (MDM). These cells were then exposed to cell-free preparations of HIV isolates and allowed to absorb for 2 hr before complete aspiration of the medium, washing once with virus-free medium and resuspension in fresh medium. The cells were exposed to 50-10 μM HMA or DMA either 24 hr prior to infection or after infection. Subsequent HIV replication, at various times after infection, was compared in cells exposed to drugs and in cells not exposed to drugs (controls). The progression and extent of viral replication was assayed using either an HIV DNA PCR method (Fear et al, 1998) or an ELISA method to quantitate p24 in culture supernatants (Kelly et al, 1998).
(§1) Subsequent tests were carried out to establish whether there was any anti-viral activity of HMA and DMA. Two tests were performed to characterise the effects of the drugs on HIV replication in human monocytes and macrophages: a) A PCR based assay was used to detect newly synthesised DNA arising from reverse transcription of the HIV genome, an early stage in virus replication; b) An ELISA method was used to quantitate production of the viral protein p24, reflecting a later stage in the replication process.

HIV-1 [3] = experiment: p24 ELISA of HIV virion production in human monocytes and macrophages; format: cell-based
Description: FIG. 7 is a graphical representation of the effect of HMA on HIV virion production in monocytes and monocyte-derived macrophages. HIV in culture supernatants was assayed at various days post-infection by detection of p24 antigen using a quantitative ELISA method. Solid black bars represent HIV-infected cells exposed to 10 μM HMA. Hatched bars are control cells not exposed to drug.
Human monocytes were isolated from peripheral blood and cultured either for 24 hr (one day old monocytes) or for 7 days to allow differentiation into monocyte derived macrophages (MDM). […] The progression and extent of viral replication was assayed using either an HIV DNA PCR method (Fear et al, 1998) or an ELISA method to quantitate p24 in culture supernatants (Kelly et al, 1998).
as §1

Vpu ion channel [4] = molecular target: T1, Vpu ion channel; experiment: Bio-assay for Vpu channel blockers: growth of E. coli XL1-blue expressing Vpu on plates lacking adenine; format: cell-based, HIV-1; conditions: XL1-blue E. coli containing pPL-Vpu, medium lacking adenine, 37° C.
Description: FIG. 5 is a graphical representation of the screening of drugs for potential Vpu channel blockers. […] Numbers 6-11 are located at the sites of application of various drugs being tested, which were applied in 3μl drops and allowed to soak into the agarose. The plate was then incubated at 37° C. for 48hr prior to being photographed. The background grey shade corresponds to areas of no bacterial growth. The bright circular area around “10” represents bacterial cell growth as a result of application of adenine at that location (positive control).
As part of a search for drugs that block the Vpu ion channel, a novel bio-assay was developed to facilitate the screening process which would be prohibitively slow if performed in the bilayer assay (Ewart et al, 1996). This bio-assay is based on the observation that expression of Vpu in E.coli results in an active Vpu channel located in the plasmalemma that dissipates the transmembrane sodium gradient. As a consequence of this Vpu channel activity, metabolites whose accumulation within the cells is mediated by a sodium dependent co-transporter (for example proline or adenine) leak out of the cell faster than they can be synthesised so that the metabolites' intracellular levels become limiting for growth of the cell. Thereby, an E. coli cell expressing Vpu is unable to grow in minimal drop-out media lacking adenine or proline. However, in the presence of a drug that blocks the Vpu channel, the cell is once again able to re-establish its transmembrane sodium gradient—due to the action of other ion pumps in the membrane—and the leakage of metabolites is prevented enabling growth.
It was observed that, due to an uncharacterised mutation in the adenine synthesis pathway, growth of E. coli cells of the XL1-blue strain expressing Vpu at 37° C. was dependant on the presence of adenine in the medium. […]

HIV = experiment: Effect on HIV replication (test not specified); format: cell-based

SMILES | inhibition of Vpu ion-channel activity (Vpu ion channel [1]) | synthesis of HIV DNA in the cells (HIV-1 [2]) | HIV virion synthesis (p24 ELISA) (HIV-1 [3]; 50 μM, data not shown) | halo of bacterial growth around the site of application (inhibition of Vpu channel) (Vpu ion channel [4]) | halo of bacterial growth around the site of application (inhibition of Vpu channel) (Vpu ion channel [4]; listed as 5-(N,N-hexamethylene)-anmiloride) | HIV virion synthesis (p24 ELISA) (HIV-1 [3]; 10 μM, monocytes (FIG. 7A) and macrophages (FIG. 7B)) | effect on HIV replication (HIV)
CN(C)c1nc(N)c(C(=O)N=C(N)N)nc1Cl [DMA, 5-(N,N-Dimethyl)-Amiloride] | inhibit channel activity, though not as potently as HMA | inhibited synthesis of HIV DNA | clear inhibition of HIV virion synthesis |  |  |  | 
NC(N)=NC(=O)c1nc(Cl)c(N2CCCCCC2)nc1N [HMA, 5-(N,N-Hexamethylene)-Amiloride] | block ion flow through the channel |  |  | a halo of growth | smaller halo of bacterial growth | clear inhibition of HIV virion synthesis | 
N=C(N)NC(=O)c1nc(Cl)c(N)nc1N [amiloride, reference compound] | not active as a channel blocker |  |  | did not produce a halo of bacterial growth |  |  | no effect on HIV replication
